Assays:
[1] = tested on: Catalase activity in liver; assay: Catalase activity in liver of mice after restraint stress; format: in vivo, Swiss albino mice; conditions: 25 mg/Kg p.o. 7 days, control 3.9
Protocol: Swiss albino mice (20±2 g) were fed orally with—(a) 3-OH-DBP and (b) 3,8-(OH)2-DBP (each 25 mg/Kg b.w. per day, for 7 days). In case of the controls, only vehicle (0.8% carboxymethyl cellulose in water) was administered for seven days of the experiment. All the animals of all the groups were subjected to restraint stress (for 60 minutes) on the seventh day of the experiment, 2 hours after drug administration, according to a published method [Figueiredo, H. F., Bodie, B. L., Tauchi, M., Dolgas, C. M. and Herman, J. P. 2003. Endocrinology, 144, 5249-5258]. The model was selected in the present experiment, because restraint stress is a widely used model of acute oxidative stress. Immediately after being exposed to stress, the animals were sacrificed, blood was collected for analysis by HPLC of ATP and related nucleotides [Smolenska, Z., Kaznowska, Z., Zarowny, D., Simmonds, H. A. and Smolenski, R. T. 1999. […] AEC (adenylate energy charge) was calculated according to the method of Atkinson and Walton [Atkinson D E & Walton G M, Adenosine triphosphate conservation in metabolic regulation, J Biol Chem, 242 (1967) 3239] and TAN (total adenine nucleotides) was calculated according to an established method [Spencer M K & Katz A, Role of glycogen in control of glycolysis and IMP formation in human muscle during exercise, Am J Physiol, 260 (1991) E859]. […]

[2] = Stability of reduced CoQ10 (CoQH2) by 3,8-(OH)2-DBP at different pH, HPLC; format: physicochemical
Protocol: Two mg of solid CoQ10 (SRL, India), in an airtight vial was dissolved in 1 ml of methanol. After thorough vortexing, 5 mg of solid NaBH4 (Merck India) was added, 1 mg at a time, to the yellow colored solution of CoQ10 in methanol and kept in an ice-bath for a few minutes. The vial was kept shut to avoid contact with air but opened occasionally to avoid generation of pressure inside due to accumulation of hydrogen. After the reduction reaction, a clear colorless solution was obtained to which methanolic solution of 3,8-(OH)2-DBP with a concentration of 1 mg/ml (>90% pure) was added in a ratio of 1:1 to obtain a final concentration of the mixture—reduced CoQ10 […] DBP 0.5 mg/ml. This solution was analyzed by HPLC for reduced CoQ10 content at different time intervals. A control was prepared in similar fashion except that no DBP was added. The pH of the solutions was determined to be 8 using pH paper. To obtain solutions of reduced CoQ10 with pH 7 and pH 3, aliquots of concentrated HCl were added to the methanolic solution of reduced CoQ10 at pH 8. Afterwards, a solution of DBP was added and analysis by HPLC at different time intervals was conducted, as before.
(§1) Mobile phase—Methanol:Acetonitrile:Ethanol 30:30:40
Detection—PDA 290 nm for reduced CoQ10

[3] = Inhibition of CoQ-CoQH2 aberrant metabolite formation during red-ox recycling, HPLC; format: physicochemical; conditions: in vitro
Protocol: Methanolic solution of coenzyme Q10 (1 mg/ml) was reduced by NaBH4 to pH 8 when the yellow solution became colorless. About 1 mg of 3,8-(OH)2-DBP was added to the solution and the mixture was analyzed by HPLC at different time intervals (0-80 min). A control CoQ10, without 3,8-(OH)2-DBP, was prepared similarly and analyzed at different time intervals (0-80 min).
Column—NovaPak RP C18 [250×4 mm]
as §1
Detection—PDA 275 nm for CoQ10
Reduced CoQ10 (CoQH2) has a tendency to rapidly autoxidize in the presence of air. […] The aberrant metabolites increased rapidly with time (Table 10).

[4] = tested on: Blood levels of ATP and energy related indices; assay: Blood ATP and energy related indices in mice after forced swimming stress; format: in vivo, Swiss albino mice
Protocol: Swiss albino mice (20±2 g) were fed orally with—(a) 3,8-(OH)2-DBP and (b) 3-OH-DBP (each 25 mg/Kg b.w.), per day, for 7 days. In case of the controls, only vehicle (0.8% carboxymethyl cellulose in water) was administered for seven days of the experiment. The animals were subjected to ‘forced swimming’ for 30 minutes on the 7th day of the experiment [Pliakas, A. M., Carlson, R. R., Neve, R. L., Konradi, C., Nestler, E. J. and Carlezon, W. A. 2001. J. Neurosci., 21(18), 7397-7403]. Immediately after the swimming, blood was collected from all the animals for analysis of ATP and related nucleotides by HPLC [Smolenska, Z., Kaznowska, Z., Zarowny, D., Simmonds, H. A. and Smolenski, R. T. 1999. Rheumatology, 38, 997-1002; Komarova, S. V., Mosharov, E. V., Vitvitsky, V. M. and Ataullakhanov, F. I. 1999. Blood Cell Mol. Dis., 25(13), 170-179; Marquardt, D. L., Gruber, H. E. and Wasserman, S. I. 1984. Proc. Natl. Acad. Sci., 81, 6192-6196]. AEC (adenylate energy charge) was calculated according to the method of Atkinson and Walton [Atkinson D E & Walton G M, Adenosine triphosphate conservation in metabolic regulation, J Biol Chem, 242 (1967) 3239] and TAN (total adenine nucleotides) was calculated according to an established method [Spencer M K & Katz A, Role of glycogen in control of glycolysis and IMP formation in human muscle during exercise, Am J Physiol, 260 (1991) E859].

## O=c1oc2cc(O)ccc2c2ccc(O)cc12 [3,8-(OH)2-DBP, 3,8-dihydroxydibenzo-α-pyrone]
[1]
  Catalase activity in liver: 3.4 U/mg tissue
[2]; autoxidation of CoQH2, pH 8, 0 min
  Regenerated CoQ10 in presence of 3,8-(OH)2-DBP: 0 µg/mL
[2]; autoxidation of CoQH2, pH 8, 20 min
  Regenerated CoQ10 in presence of 3,8-(OH)2-DBP: 10.63 µg/mL
[2]; autoxidation of CoQH2, pH 8, 40 min
  Regenerated CoQ10 in presence of 3,8-(OH)2-DBP: 37.37 µg/mL
[2]; autoxidation of CoQH2, pH 8, 60 min
  Regenerated CoQ10 in presence of 3,8-(OH)2-DBP: 99.55 µg/mL
[2]; pH 3, 0 hour
  Reduced CoQ10 remaining in presence of DBP: 100.00%
[2]; pH 3, 48 hour
  Reduced CoQ10 remaining in presence of DBP: 79.27%
[2]; pH 3, 72 hour
  Reduced CoQ10 remaining in presence of DBP: 73.91%
[2]; pH 7, 0 hour
  Reduced CoQ10 remaining in presence of DBP: 100.00%
[2]; pH 7, 48 hour
  Reduced CoQ10 remaining in presence of DBP: 10.79%
[2]; pH 7, 72 hour
  Reduced CoQ10 remaining in presence of DBP: 6.33%
[2]; pH 8, 0 min, DBP 0.5 mg/ml
  Reduced CoQ10 remaining in presence of DBP: 100.00%
[2]; pH 8, 40 min, DBP 0.5 mg/ml
  Reduced CoQ10 remaining in presence of DBP: 93.44%
[2]; pH 8, 60 min, DBP 0.5 mg/ml
  Reduced CoQ10 remaining in presence of DBP: 80.21%
[2]; pH 8, 80 min, DBP 0.5 mg/ml
  Reduced CoQ10 remaining in presence of DBP: 66.57%
[2]; pH 8, 100 min, DBP 0.5 mg/ml
  Reduced CoQ10 remaining in presence of DBP: 51.85%
[2]; pH range 3 to 8
  protection of reduced CoQ10 from oxidative degradation, in words: significantly protects
[3]
  aberrant metabolite formation of CoQH2 in the presence of 3,8-(OH)2-DBP, in words: did not form any aberrant metabolite for a long time
[3]; pH 8, 0 minutes
  Relative percentage of aberrant metabolites in presence of 3,8-(OH)2-DBP: 0%
[3]; pH 8, 40 minutes
  Relative percentage of aberrant metabolites in presence of 3,8-(OH)2-DBP: 0%
[3]; pH 8, 80 minutes
  Relative percentage of aberrant metabolites in presence of 3,8-(OH)2-DBP: 0%
[4]; albino mice engaged in forced swimming
  content of ATP, AEC values and ATP/ADP ratio (in blood), in words: significant improvement only in some parameters
[4]; blood, forced swimming, 25 mg/Kg p.o. 7 days, mean ± SEM of 6, control 0.60 ± 0.01
  ATP: 0.68 ± 0.03 µM
[4]; blood, forced swimming, 25 mg/Kg p.o. 7 days, mean ± SEM of 6, control 0.79 ± 0.01
  TAN: 0.86 ± 0.03 µM
[4]; blood, forced swimming, 25 mg/Kg p.o. 7 days, mean ± SEM of 6, control 0.86 ± 0.003
  AEC: 0.88 ± 0.003
[4]; blood, forced swimming, 25 mg/Kg p.o. 7 days, mean ± SEM of 6, control 3.84 ± 0.09
  ATP/ADP ratio: 4.30 ± 0.12
